Assay results from US12577325B2, “Bispecific antibody-camptothecin drug conjugate and pharmaceutical use thereof” (SYSTIMMUNE, INC., priority 2021, dated 2026).

How the values were obtained:
[1] = tested on: human poorly differentiated lung cancer squamous cell carcinoma cell line Oka-c-1; test: In vitro efficacy (Alamar Blue or MTS, 5 days) in Oka-c-1; format: cell-based; settings: 120 h, Oka-c-1, 5 days
Protocol: (§1) The in vitro efficacy of ADC-coupled drugs was evaluated using an experimental model of two human tumor cell lines (human poorly differentiated lung cancer squamous cell carcinoma cell line Oka-c-1, human lung squamous cell carcinoma cells SK-MES-1).
(§2) Inoculate a certain number of tumor cells in a 96-well plate, add the gradient-diluted test antibody and the corresponding ADC drug to the cells, treat for 5 days, measure the cell viability using Alamar Blue or MTS, and evaluate the inhibitory effect of the test antibody, the ADC and the small molecule drug d3 on the tumor cell lines by calculating the IC50. The starting concentration of the antibody drug was 500 nM, and the dilution was 7-fold, totaling 7 concentration points, and the treatment was carried out for 5 days.

[2] = tested on: human lung squamous cell carcinoma cells SK-MES-1; test: In vitro efficacy (Alamar Blue or MTS, 5 days) in SK-MES-1; format: cell-based; settings: 120 h, SK-MES-1, 5 days
Protocol: as §1, §2

`CC[C@@]1(O)C(=O)OCc2c1cc1n(c2=O)Cc2c-1nc1cc(F)c(C)c3c1c2[C@@H](NC(=O)[C@H](C)O)CC3` [d3] gave an IC50 [1] of 0.846 nM and an IC50 [2] of 2.04 nM.
